Assay results: patent US20210137961A1, “Compositions and Methods for Treating Dry Eye Diseases” (priority 2017, published 2021)
Values after ≈ are worked out from the molar mass of the structure shown.

Experiments:
[1] = test system: Streptococci (Groups C, F, G); test: MIC against Streptococci (Groups C, F, G); assay type: cell-based; conditions: N 185
[2] = test system: L. monocytogenes and S. aureus; test: Antibacterial activity at acidic pH compared with Azi; assay type: cell-based; conditions: including L. monocytogenes and S. aureus
[3] = test system: S. epidermidis; test: MIC against S. epidermidis (30 species); assay type: cell-based
[4] = test system: Corynebacterium spp.; test: MIC against Corynebacterium spp.; assay type: cell-based; conditions: N 10
[5] = test system: Peptostreptococcus spp.; test: MIC against Peptostreptococcus spp.; assay type: cell-based; conditions: N 10
[6] = test system: Chlamydia trachomatis; test: MIC against Chlamydia trachomatis; assay type: cell-based; conditions: N 10
[7] = test system: Haemophilus influenzae; test: MIC against Haemophilus influenzae; assay type: cell-based
[8] = test system: Staphylococcus aureus; test: MIC against Staphylococcus aureus; assay type: cell-based; conditions: N 201
[9] = test system: Streptococcus agalactiae; test: MIC against Streptococcus agalactiae; assay type: cell-based; conditions: N 535
[10] = test system: Immortalized human meibomian gland epithelial cells (HMGECs); test: HMGEC lysosome and neutral lipid accumulation, differentiation and proliferation; assay type: cell-based
Description: EXAMPLE. Immortalized human meibomian gland epithelial cells (HMGECs) are cultured in the presence of vehicle or test compound, such as Soli (2, 10, or 20 μg/ml) for 1 to 7 days under proliferating (keratinocyte serum-free medium; KSFM) or differentiating (DMEM/F12 plus 10% fetal bovine serum) conditions. A positive control (epidermal growth factor and bovine pituitary extract for proliferation; Azi for differentiation) and a negative control (media only) are included with the experiments. Additional details are described in JAMA Ophthalmol 132(2): 226-228 (Feb. 1, 2014) and Current Eye Research, 1-6 (2017), each of which is incorporated herein by reference.
HMGECs are evaluated for cell number, neutral lipid content (LipidTox) and lysosome accumulation (LysoTracker). […] Strong lysosomal effects are observed with the 10 μg/ml dose of Soli (relative stimulation=30), on the first day of dosing, and those effects are statistically different (p<0.01) from the control group (relative stimulation=13). In contrast, the 10 μg/m1Azi dose is not statistically different from the control group (relative stimulation=18) until day 3. […] Compounds described herein, such a Soli, affect lysosome and lipid accumulation and differentiation of HMGECs. The effect of Soli on lysosome appearance is faster than that of Azi.

[11] = test system: phagocytized L. pneumophila; assay type: cell-based
[12] = test system: MMP9; test: MMP9 activity in PMA-stimulated U937 cells (gelatin zymography); assay type: cell-based, human; conditions: PMA stimulation
Description: EXAMPLE. […] Cells. The human monocytic cell line U937 was obtained from the American Type Culture Collection (ATCC, Rockville, Md.). PBMCs from COPD patients were obtained from Brompton hospital and separated by AccuSPIN (Sigma-Aldrich). […] U937 cells were differentiated into adherent macrophage-like morphology by exposure to PMA (50 ng/ml) for 48 h in complete growth medium. Cell viability was assessed microscopically by trypan blue staining. Cell toxicity was determined by MTT assay as needed. This study was approved by the ethics committee of the Royal Brompton Hospitals, and all subjects gave written informed consent. Zymography. MMP9 enzyme activity was measured by gelatin zymography. […] After electrophoresis, gels were incubated and rinsed with Novex® zymogram renaturing buffer (Invitrogen) for 30 min at room temperature. The gels were then rinsed in Novex® zymogram developing buffer (Invitrogen) for 30 min at room temperature prior to overnight incubation in the developing buffer at 37° C. After incubation, the gels were stained using a Colloidal Blue Staining Kit (Invitrogen) to visualize the zymogen bands. Statistical analysis. The results were expressed as the mean±SEM. Comparisons of data in two groups were performed using the Student's t test or the Wilcoxon signed rank test. Multiple comparisons were made by one-way ANOVA with post hoc test (Dunnett's) as appropriate. The difference was considered significant at p<0.05.

[13] = test system: CXCL8; test: LPS-induced CXCL8 (IL-8) production in PMA-differentiated U937 cells (ELISA); assay type: cell-based, human
Description: (§1) EXAMPLE. […] Cells. The human monocytic cell line U937 was obtained from the American Type Culture Collection (ATCC, Rockville, Md.). PBMCs from COPD patients were obtained from Brompton hospital and separated by AccuSPIN (Sigma-Aldrich). […] U937 cells were differentiated into adherent macrophage-like morphology by exposure to PMA (50 ng/ml) for 48 h in complete growth medium. Cell viability was assessed microscopically by trypan blue staining. Cell toxicity was determined by MTT assay as needed. This study was approved by the ethics committee of the Royal Brompton Hospitals, and all subjects gave written informed consent. Cytokine ELISA. TNFα and IL-8 concentrations in the supernatant of cell cultures were determined by sandwich ELISA according to the manufacturer's instructions (R&D Systems Europe, Abingdon, UK). Statistical analysis. The results were expressed as the mean±SEM. Comparisons of data in two groups were performed using the Student's t test or the Wilcoxon signed rank test. Multiple comparisons were made by one-way ANOVA with post hoc test (Dunnett's) as appropriate. The difference was considered significant at p<0.05. […] Anti-inflammatory effects of solithromycin in U937 cells.

[14] = test system: Viridans group streptococci; test: MIC against Viridans group streptococci; assay type: cell-based; conditions: N 51
[15] = test system: Streptococcus pneumoniae; test: MIC against Streptococcus pneumoniae; assay type: cell-based
[16] = test system: TNFα; test: LPS-induced TNFα production in PMA-differentiated U937 cells (ELISA); assay type: cell-based, human
Description: as §1

[17] = solithromycin and telithromycin at 100 μM, clarithromycin at 333 μM
[18] = Streptococcus pneumoniae, N 150

With `CC[C@H]1OC(=O)[C@@](C)(F)C(=O)[C@H](C)[C@@H](O[C@@H]2O[C@H](C)C[C@H](N(C)C)[C@H]2O)[C@](C)(OC)C[C@@H](C)C(=O)[C@H](C)[C@H]2N(CCCCn3cc(-c4cccc(N)c4)nn3)C(=O)O[C@]12C` [Solithromycin, solithromycin] the MIC50 [1] was at most 0.03 µg/mL, the MIC90 [1] was at most 0.03 µg/mL and the “MIC Range” value [1] was ≤0.03-0.25^ μg/mL. For the same compound, the “activity at acidic pH relative to Azi” value [2] was 100-200 fold, the “I = intermediate susceptibility” value [3] was 3% and the MIC50 [3] was 0.015 µg/mL (≈ 0.0178 µM). For the same compound, the MIC90 [3] was 32 µg/mL (≈ 37.9 µM), the “NS = not susceptible” value [3] was 17% and the “S = susceptible” value [3] was 80%. The MIC50 [4] was 0.015 µg/mL (≈ 0.0178 µM), the MIC90 [4] was 0.5 µg/mL (≈ 0.592 µM) and the “MIC Range” value [4] was ≤0.008-16 ^ μg/mL. The MIC50 [5] was 0.06 µg/mL (≈ 0.071 µM), the MIC90 [5] was 0.25 µg/mL (≈ 0.296 µM) and the “MIC Range” value [5] was ≤0.03-0.25^ μg/mL. The MIC50 [6] was 0.25 µg/mL (≈ 0.296 µM), the MIC90 [6] was 0.25 µg/mL (≈ 0.296 µM) and the “MIC Range” value [6] was 0.125 to 0.5 µg/mL. The MIC90 ([7]; Haemophilus influenzae (100 strains)) was 2 µg/mL (≈ 2.37 µM), the MIC50 ([7]; Haemophilus influenzae, N 100) was 1 µg/mL (≈ 1.18 µM) and the MIC90 ([7]; Haemophilus influenzae, N 100) was 2 µg/mL (≈ 2.37 µM). For the same compound, the “MIC Range” value ([7]; Haemophilus influenzae, N 100) was 0.12 to 4 µg/mL, the MIC50 [8] was 0.12 µg/mL (≈ 0.142 µM) and the MIC90 [8] was over 16 µg/mL. The MIC50 [9] was at most 0.03 µg/mL, the MIC90 [9] was at most 0.03 µg/mL and the “MIC Range” value [9] was ≤0.03-0.5 ^ μg/mL. The “lysosomal effects, relative stimulation” value ([10]; 10 μg/ml dose, first day of dosing, LysoTracker) was 30, the “accumulation of neutral lipids and lysosomes in HMGECs” value ([10]; 2, 10 or 20 μg/ml, 1 to 7 days) was “rapid and dose-dependent increase” and the “proliferation of HMGECs” value ([10]; 7-day dosing period) was “does not cause unwanted proliferation”. For the same compound, the “potency relative to azithromycin” value [11] was 100 fold, the IC50 [12] was 14.9 ± 3.1 µM and the IC50 ([13]; LPS, PMA-differentiated U937 cells, read-out: IC50 on CXCL8 release) was 78.2 ± 9.5 µM. The “inhibition of CXCL8 (IL-8) production (in words)” value [13, 17] was “significantly inhibited”, the MIC50 [14] was at most 8 ng/mL and the MIC90 [14] was 0.06 µg/mL (≈ 0.071 µM). The “MIC Range” value [14] was ≤0.008-0.12 ^ μg/mL, the MIC90 ([15]; Streptococcus Pneumoniae (150 strains)) was 0.25 µg/mL (≈ 0.296 µM) and the MIC50 [15, 18] was 0.015 µg/mL (≈ 0.0178 µM). The MIC90 [15, 18] was 0.25 µg/mL (≈ 0.296 µM), the “MIC Range” value [15, 18] was at most 8 to 500 ng/mL and the IC50 ([16]; LPS, PMA-differentiated U937 cells, read-out: IC50 on TNFα release) was 41.6 ± 1.9 µM. The “inhibition of TNFα production (in words)” value [16, 17] was “significantly inhibited”.
